Reference: patent US5912153A, “(1,3) β-glucan synthase genes and inducible inhibition of fungal growth using the antisense constructs derived therefrom” (priority 1995, dated 1999)

Target: Neurospora crassa wild type (1,3)β-glucan synthase (crude extract) (Neurospora crassa, UniProt Q7S0A7)
Experiment: (1,3)β-glucan synthase assay with quinate added to wild type crude extract
Format: biochemical
Details: concentrations as high as 4.0% of quinate added to the assay, data not shown
Description: To fresh hyphal pellets was added 20-mls of extraction buffer (25 mM HEPES (pH7.4); 10 mM NaH2 PO4; 600 mM glycerol; 10 mM NaF; 5 mM EDTA and 10 μM GTPy-S). At 4° C., hyphae were disrupted (5×30 second pulses with 2 minute coolings between each pulse) using a Bead Beater (Biospec Products, Bartlesville, Okla.) with 0.5 mm zirconium-silica beads. Lysates were centrifuged at 1000×g for 10 min at […], and used for the enzyme assays as will subsequently be described. Protein concentrations were determined by the method of Bradford using the Bio-Rad protein reagent (BioRad Labs, Hercules, Calif.). The yield was anywhere from 0.9-2.4 mg/ml crude extract depending on the transformant.
(1,3)β-Glucan synthase was assayed using modifications of a procedure previously described. To this end, in vitro reactions contained 50 μg α-amylase (type IIA; Sigma), 1 mM UDP-^14 C-glucose (~50,000 cpm/assay), and 20 μl crude extract in a final volume of 26 μl. Reactions were carried out in V-bottom 96-well microtiter plates (Dynatec Laboratories, Chantilly, Va.) and incubated at 22° C. for 0, 15, 30, 45, and 60 minutes. […]
Wrapped Inotech glass fiber filters were placed for 4-18 hours on a Molecular Dynamics Phosphor Screen. The amount of radioactivity on the filter was determined using a Molecular Dynamics Phosphor Imager Model Sl. […]

Chain of Neurospora crassa wild type (1,3)β-glucan synthase (crude extract) (Q7S0A7 1-1955): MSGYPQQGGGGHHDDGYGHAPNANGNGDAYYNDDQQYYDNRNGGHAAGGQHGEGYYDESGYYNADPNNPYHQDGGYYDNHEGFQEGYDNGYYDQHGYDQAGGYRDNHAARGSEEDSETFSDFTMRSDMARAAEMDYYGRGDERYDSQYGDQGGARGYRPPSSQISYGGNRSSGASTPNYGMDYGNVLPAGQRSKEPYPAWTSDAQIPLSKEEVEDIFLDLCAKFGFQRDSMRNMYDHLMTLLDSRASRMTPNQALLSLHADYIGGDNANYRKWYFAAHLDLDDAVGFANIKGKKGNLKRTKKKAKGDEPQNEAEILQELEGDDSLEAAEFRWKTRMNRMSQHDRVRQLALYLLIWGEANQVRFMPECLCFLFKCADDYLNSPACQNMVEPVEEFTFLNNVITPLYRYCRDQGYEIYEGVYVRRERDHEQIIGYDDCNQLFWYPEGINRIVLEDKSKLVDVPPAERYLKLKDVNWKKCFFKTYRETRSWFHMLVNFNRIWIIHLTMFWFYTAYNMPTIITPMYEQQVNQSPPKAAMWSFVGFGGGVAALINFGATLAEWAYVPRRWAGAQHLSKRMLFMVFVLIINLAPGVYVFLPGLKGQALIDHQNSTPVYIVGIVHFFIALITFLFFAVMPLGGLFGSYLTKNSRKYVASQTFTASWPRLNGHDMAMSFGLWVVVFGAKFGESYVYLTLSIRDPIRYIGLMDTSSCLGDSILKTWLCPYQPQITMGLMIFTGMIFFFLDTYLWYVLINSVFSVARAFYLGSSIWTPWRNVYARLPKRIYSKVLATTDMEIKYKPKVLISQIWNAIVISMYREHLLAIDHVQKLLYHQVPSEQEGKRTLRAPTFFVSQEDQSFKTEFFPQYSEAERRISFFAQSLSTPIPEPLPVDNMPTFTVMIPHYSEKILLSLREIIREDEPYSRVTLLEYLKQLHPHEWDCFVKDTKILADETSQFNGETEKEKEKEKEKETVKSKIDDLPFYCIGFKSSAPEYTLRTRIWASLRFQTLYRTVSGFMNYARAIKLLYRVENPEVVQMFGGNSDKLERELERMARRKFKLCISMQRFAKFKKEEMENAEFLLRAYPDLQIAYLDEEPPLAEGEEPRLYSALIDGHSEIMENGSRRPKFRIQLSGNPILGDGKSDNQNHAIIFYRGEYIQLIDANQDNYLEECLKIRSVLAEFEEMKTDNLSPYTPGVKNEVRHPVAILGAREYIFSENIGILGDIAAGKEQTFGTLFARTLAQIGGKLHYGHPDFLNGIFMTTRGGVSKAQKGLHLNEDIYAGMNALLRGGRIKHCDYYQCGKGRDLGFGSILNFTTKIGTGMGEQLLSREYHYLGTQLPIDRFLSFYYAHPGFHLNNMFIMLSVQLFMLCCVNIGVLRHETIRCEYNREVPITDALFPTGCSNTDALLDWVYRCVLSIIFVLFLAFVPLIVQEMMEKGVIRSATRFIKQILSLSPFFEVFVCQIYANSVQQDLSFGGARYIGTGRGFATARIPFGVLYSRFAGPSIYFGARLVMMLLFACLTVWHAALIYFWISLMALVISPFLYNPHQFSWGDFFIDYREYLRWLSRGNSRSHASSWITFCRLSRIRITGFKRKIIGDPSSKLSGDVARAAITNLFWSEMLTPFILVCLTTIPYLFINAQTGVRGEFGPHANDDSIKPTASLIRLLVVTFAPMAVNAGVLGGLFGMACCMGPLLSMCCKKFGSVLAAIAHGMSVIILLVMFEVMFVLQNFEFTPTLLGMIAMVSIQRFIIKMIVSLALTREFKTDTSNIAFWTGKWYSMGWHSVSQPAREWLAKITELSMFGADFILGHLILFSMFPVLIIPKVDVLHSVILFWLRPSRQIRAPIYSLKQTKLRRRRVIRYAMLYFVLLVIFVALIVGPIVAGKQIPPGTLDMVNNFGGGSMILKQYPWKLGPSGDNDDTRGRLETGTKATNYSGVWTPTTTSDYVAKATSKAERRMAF
Chain of Neurospora crassa wild type (1,3)β-glucan synthase (crude extract) (Q7RXU8 1-195 partner): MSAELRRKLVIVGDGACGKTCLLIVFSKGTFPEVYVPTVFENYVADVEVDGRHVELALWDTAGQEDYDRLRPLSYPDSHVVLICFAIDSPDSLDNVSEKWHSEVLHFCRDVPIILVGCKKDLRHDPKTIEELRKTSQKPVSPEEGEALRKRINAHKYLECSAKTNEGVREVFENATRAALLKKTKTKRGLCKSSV

inhibitory effect of quinate on (1,3)β-glucan synthase activity: did not show an inhibitory effect
SMILES: O=C(O)C1(O)CC(O)C(O)C(O)C1 (single isomer, unassigned) [quinate, quinic acid]
